The results in this text go back to ChEMBL document CHEMBL5113492, “Design, synthesis, and biological evalution of bifunctional inhibitors against Hsp90-HDAC6 interplay” (Eur J Med Chem, 2022).

Activity calls are given as the source filed them. The calls are words filed in the database; no cut-off is given here.

For data set [1], the target named is T1, Protein deacetylase HDAC6 (Homo sapiens) (UniProt Q9UBN7).
T1 sequence (whole entry): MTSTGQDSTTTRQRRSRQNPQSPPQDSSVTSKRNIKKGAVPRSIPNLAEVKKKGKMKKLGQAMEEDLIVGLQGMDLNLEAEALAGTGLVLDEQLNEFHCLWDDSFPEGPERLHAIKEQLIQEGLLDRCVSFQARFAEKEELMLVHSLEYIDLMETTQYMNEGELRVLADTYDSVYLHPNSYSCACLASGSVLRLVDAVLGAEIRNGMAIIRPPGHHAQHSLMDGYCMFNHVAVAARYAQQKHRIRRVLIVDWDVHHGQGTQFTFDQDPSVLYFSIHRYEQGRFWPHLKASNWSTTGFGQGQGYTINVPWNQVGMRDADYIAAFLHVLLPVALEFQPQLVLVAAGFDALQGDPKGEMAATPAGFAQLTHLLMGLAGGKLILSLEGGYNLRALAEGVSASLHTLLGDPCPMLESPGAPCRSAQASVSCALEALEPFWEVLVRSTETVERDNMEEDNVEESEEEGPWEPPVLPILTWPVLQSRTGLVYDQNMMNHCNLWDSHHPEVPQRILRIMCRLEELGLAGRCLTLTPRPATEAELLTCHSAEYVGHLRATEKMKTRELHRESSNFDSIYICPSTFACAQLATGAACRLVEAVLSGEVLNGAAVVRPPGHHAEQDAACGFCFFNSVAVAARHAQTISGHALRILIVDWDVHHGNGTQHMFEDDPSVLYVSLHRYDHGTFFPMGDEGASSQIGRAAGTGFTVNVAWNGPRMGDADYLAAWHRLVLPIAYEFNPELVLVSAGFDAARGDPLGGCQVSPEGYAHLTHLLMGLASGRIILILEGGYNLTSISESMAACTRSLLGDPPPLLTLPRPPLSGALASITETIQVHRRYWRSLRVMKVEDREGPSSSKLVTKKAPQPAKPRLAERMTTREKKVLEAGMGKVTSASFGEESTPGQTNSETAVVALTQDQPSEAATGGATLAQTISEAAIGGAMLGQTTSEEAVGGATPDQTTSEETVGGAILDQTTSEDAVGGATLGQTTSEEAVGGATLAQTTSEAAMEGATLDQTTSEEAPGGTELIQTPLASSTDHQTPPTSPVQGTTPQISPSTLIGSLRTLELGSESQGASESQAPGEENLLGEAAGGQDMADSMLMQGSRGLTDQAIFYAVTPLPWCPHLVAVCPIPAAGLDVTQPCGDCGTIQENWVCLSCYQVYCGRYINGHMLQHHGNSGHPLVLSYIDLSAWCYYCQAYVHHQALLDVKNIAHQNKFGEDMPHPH
In words: Inhibition of HDAC6 in human NCI-H1975 cells assessed as increase in acetylation of HSP90 at 2 uM incubated for 24 hrs by western blot analysis. In kind it is cell-based. A general note: In western blotting, separated proteins are transferred to a membrane and probed.

The target of data set [2] is T1, Protein deacetylase HDAC6 (Homo sapiens). In words: Inhibition of HDAC6 in human NCI-H1975 cells assessed as increase in acetylation of HSP90-Lys 294 residue at 2 uM incubated for 24 hrs by western blot analysis. Type of data set: cell-based.
The nature of data set [3]: Toxicity in NSG mouse xenografted with human NCI-H1975 cells assessed as abnormal behavior at 25 mg/kg,ip measured after 6 weeks. In kind it is organism-based. The following applies: in vivo, 1008 h. For orientation: A xenograft is tissue or cells of one species grown in another, often human tumour cells in immunodeficient mice.
Data set [4] concerns the target T1, Protein deacetylase HDAC6 (Homo sapiens). The experiment in a line: Inhibition of HDAC6 in human NCI-H1975 cells assessed as increase in acetylation of alpha tubulin at 2 uM incubated for 24 hrs by western blot analysis. Type of data set: cell-based.
Another data set has as its system Mus musculus. The experiment in a line: In vivo inhibition of HSP90 in human NCI-H1975 cells xenografted with NSG mouse assessed as downregulation of EGFR expression at 50 mg/kg,ip measured after 6 weeks by immunohistochemistry analysis. In kind it is functional, organism-based.

As for `CC(C)c1cc(C(=O)N(C)Cc2ccc(C(=O)NO)cc2)c(O)cc1O`, the inhibition result (in data set [1]; in data set [2]; in data set [4]; in the data set on Mus musculus) was “Active” in each case. Besides, in data set [3], the Activity entry is listed as “Non-Toxic”.
